Test results taken from US20040224958A1, “Pyridopyrimidinone derivatives for treatment of neurodegenerative disease” (priority 2000, published 2004).

What was measured:
[1] = target: cdk4/D (Homo sapiens, UniProt P11802); experiment: Cyclin-Dependent Kinase 4 (cdk4) Assay; type: biochemical; settings: read-out: cdk4/D IC50
[2] = target: Cdk5/p25 (Homo sapiens, UniProt Q00535); experiment: Cyclin-Dependent Kinase 5 High Throughput Screening (cdk5-HTS) Assay; type: biochemical; settings: high throughput screen
Procedure, shortened: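 IC50 determined from 33P incorporation into GST-RbCOOH captured on glutathione plates and read by scintillation counting. Reaction: 1.0 μg/mL Cdk5/p25, 20 μM [γ33P]ATP, pH 7.4 Tris buffer with MgCl2 and DTT, 30 min at room temperature, stopped with EDTA.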

[3] = target: cdk2/cyclinE (Homo sapiens, UniProt P24941); experiment: Cyclin-Dependent Kinase Assay cdk2/cyclinE; settings: cdk2/E IC50
[4] = target: cdk2/cyclinA (Homo sapiens, UniProt P24941); experiment: Cyclin-Dependent Kinase Assay cdk2/cyclinA; settings: cdk2/A IC50
[5] = target: cdc2/cyclinB (Homo sapiens, UniProt P06493); experiment: Cyclin-Dependent Kinase Assay cdc2/cyclinB
Sequence of cdc2/cyclinB (P06493 whole entry): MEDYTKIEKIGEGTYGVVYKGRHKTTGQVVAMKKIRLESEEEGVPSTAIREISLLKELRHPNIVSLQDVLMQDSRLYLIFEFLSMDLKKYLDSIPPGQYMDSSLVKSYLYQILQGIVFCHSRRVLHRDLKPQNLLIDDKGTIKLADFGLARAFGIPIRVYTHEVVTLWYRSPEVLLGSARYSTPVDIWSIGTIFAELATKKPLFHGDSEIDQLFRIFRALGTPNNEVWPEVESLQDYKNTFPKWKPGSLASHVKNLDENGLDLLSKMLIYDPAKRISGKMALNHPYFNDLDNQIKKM
Sequence of cdc2/cyclinB (P14635 whole entry, further chain): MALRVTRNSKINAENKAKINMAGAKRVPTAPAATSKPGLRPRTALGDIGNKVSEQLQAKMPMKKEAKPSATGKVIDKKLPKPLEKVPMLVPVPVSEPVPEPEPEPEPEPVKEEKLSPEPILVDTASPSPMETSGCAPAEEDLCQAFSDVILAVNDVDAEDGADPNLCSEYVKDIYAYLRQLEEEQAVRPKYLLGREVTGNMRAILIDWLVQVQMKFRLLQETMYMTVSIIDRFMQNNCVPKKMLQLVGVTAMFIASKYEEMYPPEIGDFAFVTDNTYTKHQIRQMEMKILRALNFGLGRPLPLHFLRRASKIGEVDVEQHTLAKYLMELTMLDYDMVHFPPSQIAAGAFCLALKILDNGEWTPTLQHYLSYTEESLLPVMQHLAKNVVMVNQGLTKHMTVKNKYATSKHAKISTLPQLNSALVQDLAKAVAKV

Sequence of cdk4/D (P11802 whole entry): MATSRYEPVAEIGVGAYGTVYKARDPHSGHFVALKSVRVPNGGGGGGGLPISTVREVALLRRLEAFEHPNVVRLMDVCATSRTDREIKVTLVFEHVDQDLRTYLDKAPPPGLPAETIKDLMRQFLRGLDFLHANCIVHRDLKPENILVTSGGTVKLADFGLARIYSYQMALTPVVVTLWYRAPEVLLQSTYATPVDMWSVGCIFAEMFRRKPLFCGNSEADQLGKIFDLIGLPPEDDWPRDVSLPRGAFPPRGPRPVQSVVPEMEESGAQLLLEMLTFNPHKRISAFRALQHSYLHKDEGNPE
Sequence of cdk4/D (P24385 whole entry, further chain): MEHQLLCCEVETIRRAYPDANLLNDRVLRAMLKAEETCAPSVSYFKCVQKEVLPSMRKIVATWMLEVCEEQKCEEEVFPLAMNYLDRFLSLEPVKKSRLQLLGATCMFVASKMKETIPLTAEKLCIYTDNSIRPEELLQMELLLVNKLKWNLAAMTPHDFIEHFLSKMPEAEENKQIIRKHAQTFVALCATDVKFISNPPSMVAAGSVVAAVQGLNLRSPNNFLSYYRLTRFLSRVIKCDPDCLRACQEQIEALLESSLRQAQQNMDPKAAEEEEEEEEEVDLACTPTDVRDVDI

Work on `CCC(CC)n1c(=O)ccc2cnc(Nc3ccc(NC(C)=O)c(C)c3)nc21` [Example 513, N-{4-[8-(1-Ethyl-propyl)-7-oxo-7,8-dihydro-pyrido[2,3-d]pyrimidin-2-ylamino]-2-methyl-phenyl}-acetamide] yielded an IC50 [1] of 830 nM, an IC50 [2] of 110 nM and an IC50 [3] of 330 nM. The IC50 [4] was 630 nM and the IC50 [5] was 160 nM.

`CCC(CC)n1c(=O)ccc2cnc(Nc3ccc(OC(F)(F)F)cc3)nc21` [Example 515, 8-(1-Ethyl-propyl)-2-(4-trifluoromethoxy-phenylamino)-8H-pyrido[2,3-d]pyrimidin-7-one] showed an IC50 [1] of 200 nM, an IC50 [2] of 71 nM and an IC50 [3] of 230 nM. The IC50 [4] was 670 nM and the IC50 [5] was 480 nM.

`CCC(CC)n1c(=O)ccc2cnc(Nc3ccc4[nH]c5ccccc5c4c3)nc21` [Example 516, 2-(9H-Carbazol-3-ylamino)-8-(I-ethyl-propyl)-8H-pyrido[2,3-d]pyrimidin-7-one] was tested, and the IC50 [1] was 28 nM, the IC50 [2] was 33 nM and the IC50 [3] was 95 nM. The IC50 [4] was 280 nM and the IC50 [5] was 62 nM.

In the case of `CCC(CC)n1c(=O)ccc2cnc(Nc3ccc4oc(=O)[nH]c4c3)nc21` [Example 517, 8-(1-Ethyl-propyl)-2-(2-oxo-2,3-dihydro-benzoxazol-5-ylamino)-8H-pyrido[2,3-d]pyrimidin-7-one], the IC50 [1] is reported as 130 nM, the IC50 [2] is reported as 18 nM and the IC50 [3] is reported as 29 nM. It also gave an IC50 [4] of 56 nM and an IC50 [5] of 62 nM.

Compound `CCC(CC)n1c(=O)ccc2cnc(Nc3ccc4cn[nH]c4c3)nc21` [Example 518, 8-(1-Ethyl-propyl)-2-(1H-indazol-6-ylamino)-8H-pyrido[2,3-d]pyrimidin-7-one] has an IC50 [1] of 365 nM, an IC50 [2] of 17.5 nM and an IC50 [3] of 53 nM. It also gave an IC50 [4] of 57.5 nM and an IC50 [5] of 31.5 nM.

For `CCC(CC)n1c(=O)ccc2cnc(Nc3ccc(C)c(NS(C)(=O)=O)c3)nc21` [Example 519, N-{5-[8-(1-Ethyl-propyl)-7-oxo-7,8-dihydro-pyrido[2,3-d]pyrimidin-2-ylamino]-2-methyl-phenyl}-methanesulfonamide], the IC50 [1] was 150 nM, the IC50 [2] was 33 nM and the IC50 [3] was 140 nM. For the same compound, the IC50 [4] was 310 nM and the IC50 [5] was 47 nM.

Work on `CCC(CC)n1c(=O)ccc2cnc(Nc3ccc4c(c3)NC(=O)CS4)nc21` [Example 520, 8-(1-Ethyl-propyl)-2-(3-oxo-3,4-dihydro-2H-1,4-benzothiazin-6ylamino)-8H-pyrido[2,3-d]pyrimidin-7-one] yielded an IC50 [1] of 120 nM, an IC50 [2] of 9.8 nM and an IC50 [3] of 41 nM. It also gave an IC50 [4] of 86 nM and an IC50 [5] of 51 nM.

`CCC(CC)n1c(=O)ccc2cnc(Nc3cc(Cl)c(N)c(Cl)c3)nc21` [Example 521, 2-(4-Amino-3,5-dichloro-phenylamino)-S-(1-ethyl-propyl)-8H-pyrido[2,3-d]pyrimidin-7-one] was tested, and the IC50 [1] was 67 nM, the IC50 [2] was 42 nM and the IC50 [3] was 98 nM. It also gave an IC50 [4] of 220 nM and an IC50 [5] of 67 nM.

For `CCC(CC)n1c(=O)ccc2cnc(Nc3ccc(C)c(NC(C)=O)c3)nc21` [Example 522, N-{5-[8-(1-Ethyl-propyl)-7-oxo-7,8-dihydro-pyrido[2,3-d]pyrimidin-2-ylamino]-2-methyl-phenyl}-acetamide], the IC50 [1] was 360 nM, the IC50 [2] was 300 nM and the IC50 [3] was 320 nM. It also gave an IC50 [4] of 1600 nM and an IC50 [5] of 1100 nM.

`CCC(CC)n1c(=O)ccc2cnc(Nc3cc(C)c(O)c(C)c3)nc21` [Example 523, 8-(1-Ethyl-propyl)-2-(4-hydroxy-3,5-dimethyl-phenylamino)-8H-pyrido[2,3-d]pyrimidin-7-one] gave an IC50 [1] of 390 nM, an IC50 [2] of 28 nM and an IC50 [3] of 46 nM. It also gave an IC50 [4] of 160 nM and an IC50 [5] of 93 nM.

`CCC(CC)n1c(=O)ccc2cnc(Nc3ccc(O)c(C(=O)O)c3)nc21` [Example 524, 5-[8-(1-Ethyl-propyl)-7-oxo-7,8-dihydro-pyrido[2,3-d]pyrimidin-2-ylamino]-2-hydroxy-benzoic acid] was tested, and the IC50 [1] was 2000 nM, the IC50 [2] was 290 nM and the IC50 [3] was 450 nM. It also gave an IC50 [4] of 650 nM and an IC50 [5] of 620 nM.

`CCC(CC)n1c(=O)ccc2cnc(Nc3ccc4c(c3)CCC4)nc21` [Example 525, 8-(I-Ethyl-propyl)-2-(indan-5-ylamino)-8H-pyrido[2,3-d]pyrimidin-7-one] showed an IC50 [1] of 1200 nM, an IC50 [2] of 27 nM and an IC50 [3] of 110 nM. For the same compound, the IC50 [4] was 290 nM and the IC50 [5] was 99 nM.

Compound `CCC(CC)n1c(=O)ccc2cnc(Nc3ccc(C(F)(F)F)cc3)nc21` [Example 526, 8-(1-Ethyl-propyl)-2-(4-trifluoromethyl-phenylamino)-8H-pyrido[2,3-d]pyrimidin-7-one] has an IC50 [1] of 85 nM, an IC50 [2] of 88 nM and an IC50 [3] of 200 nM. For the same compound, the IC50 [4] was 160 nM and the IC50 [5] was 140 nM.

Work on `O=c1ccc2cnc(Nc3ccc4[nH]ccc4c3)nc2n1C1CCCC1` [Example 528, 8-Cyclopentyl-2-(1H-indol-5-ylamino)-8H-pyrido[2,3-d]pyrimidin-7-one] yielded an IC50 [1] of 12.7 nM, an IC50 [2] of 36.3 nM and an IC50 [3] of 46.5 nM. The IC50 [4] was 74 nM and the IC50 [5] was 34.5 nM.

With `O=c1ccc2cnc(Nc3ccc4cn[nH]c4c3)nc2n1C1CCCC1` [Example 529, 8-Cyclopentyl-2-(1H-indazol-6-ylamino)-8H-pyrido[2,3-d]pyrimidin-7-one] the IC50 [1] was 31 nM, the IC50 [2] was 32 nM and the IC50 [3] was 24 nM. For the same compound, the IC50 [4] was 35.5 nM and the IC50 [5] was 82.5 nM.

In the case of `O=c1ccc2cnc(Nc3cccc(C(F)(F)F)c3)nc2n1C1CCCC1` [Example 530, 8-Cyclopentyl-2-(3-trifluoromethyl-phenylamino)-8H-pyrido[2,3-d]pyrimidin-7-one], the IC50 [1] is reported as 1700 nM, the IC50 [2] is reported as 99 nM and the IC50 [3] is reported as 180 nM. The IC50 [4] was 250 nM and the IC50 [5] was 220 nM.

For `N#Cc1ccc(Nc2ncc3ccc(=O)n(C4CCCC4)c3n2)cc1` [Example 531, 4-(8-Cyclopentyl-7-oxo-7,8-dihydro-pyrido[2,3-d]pyrimidin-2-ylamino)-benzonitrile], the IC50 [1] was 51 nM, the IC50 [2] was 50 nM and the IC50 [3] was 100 nM. For the same compound, the IC50 [4] was 74 nM and the IC50 [5] was 170 nM.

With `O=c1ccc2cnc(Nc3ccc(Cl)c(Cl)c3)nc2n1C1CCCC1` [Example 532, 8-Cyclopentyl-2-(3,4-dichloro-phenylamino)-8H-pyrido[2,3-d]pyrimidin-7-one] the IC50 [1] was 1500 nM, the IC50 [2] was 210 nM and the IC50 [3] was 630 nM. For the same compound, the IC50 [4] was 780 nM and the IC50 [5] was 510 nM.

`O=c1ccc2cnc(Nc3ccc(C(F)(F)F)cc3)nc2n1C1CCCC1` [Example 533, 8-Cyclopentyl-2-(4-trifluoromethyl-phenylamino)-81H-pyrido[2,3-d]pyrimidin-7-one] showed an IC50 [1] of 150 nM, an IC50 [2] of 66 nM and an IC50 [3] of 140 nM. The IC50 [4] was 330 nM and the IC50 [5] was 250 nM.

`CC(C)(C)OC(=O)Nc1ccc(Nc2ncc3ccc(=O)n(C4CCCC4)c3n2)cc1` [Example 535, [4-(8-Cyclopentyl-7-oxo-7,8-dihydro-pyrido[2,3-d]pyrimidin-2-ylamino)-phenyl]-carbamic acid tert-butyl ester] showed an IC50 [1] of 63.5 nM, an IC50 [2] of 74 nM and an IC50 [3] of 88.7 nM. For the same compound, the IC50 [4] was 220 nM and the IC50 [5] was 145 nM.

For `O=c1ccc2cnc(Nc3ccc4[nH]ncc4c3)nc2n1C1CCCC1` [Example 536, 8-Cyclopentyl-2-(1H-indazol-5-ylamino)-8H-pyrido[2,3-d]pyrimidin-7-one], the IC50 [1] was 25 nM, the IC50 [2] was 19.7 nM and the IC50 [3] was 14 nM. It also gave an IC50 [4] of 31.5 nM and an IC50 [5] of 18.5 nM.

With `O=c1ccc2cnc(Nc3ccc4[nH]nnc4c3)nc2n1C1CCCC1` [Example 537, 2-(1H-Benzotriazol-5-ylamino)-8-cyclopentyl-8H-pyrido[2,3-d]pyrimidin-7-one] the IC50 [1] was 42 nM, the IC50 [2] was 12.3 nM and the IC50 [3] was 8.5 nM. It also gave an IC50 [4] of 25.5 nM and an IC50 [5] of 49.5 nM.

`O=c1ccc2cnc(Nc3ccc(O)cc3F)nc2n1C1CCCC1` [Example 538, 8-Cyclopentyl-2-(2-fluoro-4-hydroxy-phenylamino)-8H-pyrido[2,3-d]pyrimidin-7-one] was tested, and the IC50 [1] was 338 nM, the IC50 [2] was 145 nM and the IC50 [3] was 72.7 nM. For the same compound, the IC50 [4] was 320 nM and the IC50 [5] was 425 nM.

`O=c1ccc2cnc(Nc3ccc(O)c(Cl)c3)nc2n1C1CCCC1` [Example 539, 2-(3-Chloro-4-hydroxy-phenylamino)-8-cyclopentyl-8H-pyrido[2,3-d]pyrimidin-7-one] showed an IC50 [1] of 23.5 nM, an IC50 [2] of 23.5 nM and an IC50 [3] of 14.3 nM. For the same compound, the IC50 [4] was 33.5 nM and the IC50 [5] was 28 nM.

In the case of `O=c1ccc2cnc(Nc3cc(Cl)c(O)c(Cl)c3)nc2n1C1CCCC1` [Example 540, 8-Cyclopentyl-2-(3,5-dichloro-4-hydroxy-phenylamino)-8H-pyrido[2,3-d]pyrimidin-7-one], the IC50 [1] is reported as 710 nM, the IC50 [2] is reported as 200 nM and the IC50 [3] is reported as 61.7 nM. For the same compound, the IC50 [4] was 170 nM and the IC50 [5] was 310 nM.

In the case of `COc1ccc(Nc2ncc3ccc(=O)n(C4CCCC4)c3n2)cc1OC` [Example 541, 8-Cyclopentyl-2-(3,4-dimethoxy-phenylamino)-8H-pyrido[2,3-d]pyrimidin-7-one], the IC50 [1] is reported as 110 nM, the IC50 [2] is reported as 13.5 nM and the IC50 [3] is reported as 22.3 nM. The IC50 [4] was 41.5 nM and the IC50 [5] was 59.5 nM.

With `COc1cc(Nc2ncc3ccc(=O)n(C4CCCC4)c3n2)cc(C(F)(F)F)c1` [Example 543, 8-Cyclopentyl-2-(3-methoxy-5-trifluoromethyl-phenylamino)-8H-pyrido[2,3-d]pyrimidin-7-one] the IC50 [1] was 280 nM, the IC50 [2] was 210 nM and the IC50 [3] was 500 nM. The IC50 [4] was 1700 nM and the IC50 [5] was 550 nM.
